According to patent publication US20240358841A1, “NANOMATERIALS COMPRISING TETRAVALENT LIPID COMPOUNDS” (Beam Therapeutics Inc., priority 2021, published 2024):

Key:
[1] = LNP hydrodynamic diameter and polydispersity index by dynamic light scattering (DLS); format: physicochemical; conditions: LNP: 47.5% ionizable lipid, 40% cholesterol, 2.5% PEG-2000 DMG, 10% DPSC, N/P 4-8
Protocol: (§1) LNPs were prepared with 47.5% Ionizable Lipid (e.g., a compound provided herein): 40% cholesterol: 2.5% PEG-2000 DMG; and 10% DPSC and an N/P ratio range of 4-8. LNPs were formed by microfluidic mixing of the lipid and NA solutions using a Precision Nanosystems NanoAssemblr Spark or Benchtop series Instruments, according to the manufacturers protocol. A ratio of aqueous to organic solvent of approximately 2:1 or 3:1 was maintained during mixing using differential flow rates. After mixing, LNPs were collected, diluted in phosphate buffer saline (PBS) or Tris-buffered saline (TBS) (approximately 1:1 v/v). Further buffer exchange was conducted using dialysis in PBS or TBS at 4° C. for 4 to 24 hours against a 20 kDa filter. After this initial dialysis, each individual LNP preparation was characterized via dynamic light scattering (DLS) to measure the size (e.g., diameter) and polydispersity. LNPs falling within specific diameter and polydispersity ranges were pooled, and further dialyzed against PBS or TBS at 4° C. for 1 to 4 hours against a 100 kDa dialysis cassette. After the second dialysis, LNPs were sterile filtered using 0.22 μm filter and stored at 4° C. for further use.
LNP hydrodynamic diameter and polydispersity index (PDI) were measured using high throughput dynamic light scattering (DLS) (Stunner, Unchained Labs). LNPs were diluted 1×TBS or PBS to an appropriate concentration and analyzed.

[2] = LNP encapsulation efficiency by Ribogreen assay; format: physicochemical; conditions: LNP: 47.5% ionizable lipid, 40% cholesterol, 2.5% PEG-2000 DMG, 10% DPSC, N/P 4-8
Protocol: as §1
RNA concentration and encapsulation efficiency were determined by Ribogreen assay (BioTek Synergy LX plate reader).

| Mean Diameter (nm) [1] | Mean PDI [1] | Mean Encapsulation Efficiency (%) [2] | SMILES |
| --- | --- | --- | --- |
| 153.0 nm | 0.08 | 38.4% | CC/C=C\CCCCOC(=O)CCCCCCC(=O)OCC(COC(=O)CCCCCCC(=O)OCCCC/C=C\CC)(COC(=O)CCCCCCC(=O)OCCCC/C=C\CC)COC(=O)NCCN1CCCC1 [Compound 7-18] |
| 77.7 nm | 0.15 | 90.1% | CC/C=C\CCCCOC(CCC(=O)OCC(COC(=O)CCCCCOC(=O)C(CCCC)CCCCCC)(COC(=O)CCCCCOC(=O)C(CCCC)CCCCCC)COC(=O)OCC1CCCN(CC)C1)OCCCC/C=C\CC (stereo not drawn) [Compound 7-58, ((2-(((4,4-bis(((Z)-oct-5-en-1-yl)oxy)butanoyl)oxy)methyl)-2-(((((1-ethylpiperidin-3-yl)methoxy)carbonyl)oxy)methyl)propane-1,3-diyl)bis(oxy))bis(6-oxohexane-6,1-diyl) bis(2-butyloctanoate)] |
| 79.6 nm | 0.14 | 87.8% | CC/C=C\CCCCOC(CCC(=O)OCC(COC(=O)CCCCCCCOC(=O)C(CCCC)CCCCCC)(COC(=O)CCCCCCCOC(=O)C(CCCC)CCCCCC)COC(=O)OCCCN(C)CC)OCCCC/C=C\CC (stereo not drawn) [Compound 7-63] |
| 126.0 nm | 0.08 | 77.1% | CCCCC/C=C\CCOC(=O)CCCCCC(=O)OCC(COC(=O)CCCCCC(=O)OCC/C=C\CCCCC)(COC(=O)CCCCCC(=O)OCC/C=C\CCCCC)COC(=O)CCCN1CCCC1 [Compound 7-51, 7,7′-di((Z)-non-3-en-1-yl) O′1,O1-(2-(((7-(((Z)-non-3-en-1-yl)oxy)-7-oxoheptanoyl)oxy)methyl)-2-(((4-(pyrrolidin-1-yl)butanoyl)oxy)methyl)propane-1,3-diyl) di(heptanedioate)] |
| 80.2 nm | 0.14 | 88.6% | CC/C=C\CCCCOC(CCC(=O)OCC(COC(=O)CCCCCCOC(=O)C(CCCC)CCCCCC)(COC(=O)CCCCCCOC(=O)C(CCCC)CCCCCC)COC(=O)OCCCN(C)CC)OCCCC/C=C\CC (stereo not drawn) [Compound 7-62] |
| 87.2 nm | 0.12 | 88.8% | CC/C=C\CCCCOC(CCC(=O)OCC(COC(=O)CCCCCCCOC(=O)C(CCCC)CCCCCC)(COC(=O)CCCCCCCOC(=O)C(CCCC)CCCCCC)COC(=O)NCCN1CCCC1)OCCCC/C=C\CC (stereo not drawn) [Compound 7-66, 2-(((4,4-bis(((Z)-oct-5-en-1-yl)oxy)butanoyl)oxy)methyl)-2-((((2-(pyrrolidin-1-yl)ethyl)carbamoyl)oxy)methyl)propane-1,3-diyl bis(8-((2-butyloctanoyl)oxy)octanoate)] |
| 92.9 nm | 0.14 | 90.0% | CC/C=C\CCCCOC(CCC(=O)OCC(COC(=O)CCCCCCC/C=C\C/C=C\CCCCC)(COC(=O)CCCCCCC/C=C\C/C=C\CCCCC)COC(=O)OCC1CCCN(CC)C1)OCCCC/C=C\CC (stereo not drawn) [Compound 7-68, 2-(((4,4-bis(((Z)-oct-5-en-1-yl)oxy)butanoyl)oxy)methyl)-2-(((((1-ethylpiperidin-3-yl)methoxy)carbonyl)oxy)methyl)propane-1,3-diyl (9Z,9′Z,12Z,12′Z)-bis(octadeca-9,12-dienoate)] |
| 119.7 nm | 0.11 | 71.9% | CCCCC/C=C\CCOC(=O)CCCC(=O)OCC(COC(=O)CCCC(=O)OCC/C=C\CCCCC)(COC(=O)CCCC(=O)OCC/C=C\CCCCC)COC(=O)OCCCN(CC)CC [Compound 7-37, O,O′-(2-((((3-(diethylamino)propoxy)carbonyl)oxy)methyl)-2-(((5-(((Z)-non-3-en-1-yl)oxy)-5-oxopentanoyl)oxy)methyl)propane-1,3-diyl) di((Z)-non-3-en-1-yl) diglutarate] |
| 80.1 nm | 0.13 | 87.5% | CC/C=C\CCCCOC(CCC(=O)OCC(COC(=O)CCCCCOC(=O)C(CCCC)CCCCCC)(COC(=O)CCCCCOC(=O)C(CCCC)CCCCCC)COC(=O)OCCCN(CC)CC)OCCCC/C=C\CC (stereo not drawn) [Compound 7-55] |
| 86.6 nm | 0.14 | 84.6% | CC/C=C\CCCCOC(CCC(=O)OCC(COC(=O)CCCCCCCOC(=O)C(CCCC)CCCCCC)(COC(=O)CCCCCCCOC(=O)C(CCCC)CCCCCC)COC(=O)OCC1CCCN(CC)C1)OCCCC/C=C\CC (stereo not drawn) [Compound 7-60, 2-(((4,4-bis(((Z)-oct-5-en-1-yl)oxy)butanoyl)oxy)methyl)-2-(((((1-ethylpiperidin-3-yl)methoxy)carbonyl)oxy)methyl)propane-1,3-diyl bis(8-((2-butyloctanoyl)oxy)octanoate)] |
| 86.1 nm | 0.15 | 88.5% | CC/C=C\CCCCOC(CCC(=O)OCC(COC(=O)CCCCCCC/C=C\C/C=C\CCCCC)(COC(=O)CCCCCCC/C=C\C/C=C\CCCCC)COC(=O)OCCCN(C)CC)OCCCC/C=C\CC [Compound 7-69, 2-(((4,4-bis(((Z)-oct-5-en-1-yl)oxy)butanoyl)oxy)methyl)-2-((((3-(ethyl(methyl)amino)propoxy)carbonyl)oxy)methyl)propane-1,3-diyl (9Z,9′Z,12Z,12′Z)-bis(octadeca-9,12-dienoate)] |
| 82.4 nm | 0.15 | 86.7% | CC/C=C\CCCCOC(CCC(=O)OCC(COC(=O)CCCCCCOC(=O)C(CCCC)CCCCCC)(COC(=O)CCCCCCOC(=O)C(CCCC)CCCCCC)COC(=O)OCC1CCCN(CC)C1)OCCCC/C=C\CC (stereo not drawn) [Compound 7-59, ((2-(((4,4-bis(((Z)-oct-5-en-1-yl)oxy)butanoyl)oxy)methyl)-2-(((((1-ethylpiperidin-3-yl)methoxy)carbonyl)oxy)methyl)propane-1,3-diyl)bis(oxy))bis(7-oxoheptane-7,1-diyl) bis(2-butyloctanoate)] |
| 88.8 nm | 0.13 | 87.0% | CC/C=C\CCCCOC(CCC(=O)OCC(COC(=O)CCCCCCC/C=C\C/C=C\CCCCC)(COC(=O)CCCCCCC/C=C\C/C=C\CCCCC)COC(=O)NCCN1CCCC1)OCCCC/C=C\CC [Compound 7-70, 2-(((4,4-bis(((Z)-oct-5-en-1-yl)oxy)butanoyl)oxy)methyl)-2-((((2-(pyrrolidin-1-yl)ethyl)carbamoyl)oxy)methyl)propane-1,3-diyl (9Z,9′Z,12Z,12′Z)-bis(octadeca-9,12-dienoate)] |
| 82.3 nm | 0.15 | 89.2% | CC/C=C\CCCCOC(CCC(=O)OCC(COC(=O)CCCCCCOC(=O)C(CCCC)CCCCCC)(COC(=O)CCCCCCOC(=O)C(CCCC)CCCCCC)COC(=O)NCCN1CCCC1)OCCCC/C=C\CC (stereo not drawn) [Compound 7-65, ((2-(((4,4-bis(((Z)-oct-5-en-1-yl)oxy)butanoyl)oxy)methyl)-2-((((2-(pyrrolidin-1-yl)ethyl)carbamoyl)oxy)methyl)propane-1,3-diyl)bis(oxy))bis(7-oxoheptane-7,1-diyl) bis(2-butyloctanoate)] |
| 81.0 nm | 0.17 | 88.4% | CC/C=C\CCCCOC(CCC(=O)OCC(COC(=O)CCCCCCCOC(=O)C(CCCC)CCCCCC)(COC(=O)CCCCCCCOC(=O)C(CCCC)CCCCCC)COC(=O)OCCCN(CC)CC)OCCCC/C=C\CC (stereo not drawn) [Compound 7-57] |
| 76.1 nm | 0.17 | 88.9% | CC/C=C\CCCCOC(CCC(=O)OCC(COC(=O)CCCCCOC(=O)C(CCCC)CCCCCC)(COC(=O)CCCCCOC(=O)C(CCCC)CCCCCC)COC(=O)OCCCN(C)CC)OCCCC/C=C\CC (stereo not drawn) [Compound 7-61] |
| 78.2 nm | 0.11 | 88.1% | CC/C=C\CCCCOC(CCC(=O)OCC(COC(=O)CCCCCCOC(=O)C(CCCC)CCCCCC)(COC(=O)CCCCCCOC(=O)C(CCCC)CCCCCC)COC(=O)OCCCN(CC)CC)OCCCC/C=C\CC (stereo not drawn) [Compound 7-56] |

| SMILES | Mean Diameter (nm) [1] | Mean PDI [1] | Mean Encapsulation Efficiency (%) [2] |
| --- | --- | --- | --- |
| CCCCC/C=C\CCOC(=O)CCCCCC(=O)OCC(COC(=O)CCCCCC(=O)OCC/C=C\CCCCC)(COC(=O)CCCN1CCCC1)COC(=O)CC12CC3CC(CC(C3)C1)C2 [Compound 7-53, O′1,O1-(2-((2-(adamantan-1-yl)acetoxy)methyl)-2-(((4-(pyrrolidin-1-yl)butanoyl)oxy)methyl)propane-1,3-diyl) 7,7′-di((Z)-non-3-en-1-yl) di(heptanedioate)] | 157.7 nm | 0.08 | 43.3% |
| CCCCC/C=C\CCOC(=O)CCCCCC(=O)OCC(COC(=O)CCCCCC(=O)OCC/C=C\CCCCC)(COC(=O)CC12CC3CC(CC(C3)C1)C2)COC(=O)OCCCN(CC)CC [Compound 7-25, O′1,O1-(2-((2-((3r,5r,7r)-adamantan-1-yl)acetoxy)methyl)-2-((((3-(diethylamino)propoxy)carbonyl)oxy)methyl)propane-1,3-diyl) 7,7′-di((Z)-non-3-en-1-yl) di(heptanedioate)] | 123.1 nm | 0.11 | 66.9% |
